Results on six molecules are retold here after US8143249B2 (Gilead Sciences, Inc., priority 2005, dated 2012).

This series can be described thus: Oral pharmacokinetics/bioavailability of prodrugs vs parent (compound 1) in rats, plasma LC/MS/MS. In kind it is in vivo, Sprague Dawley rats. As to conditions: for Cmax: Sprague Dawley. The protocol:
The following studies were conducted in order to compare the pharmacokinetics of the parent A2B adenosine receptor antagonist and its corresponding prodrug. The parent compound chosen was the compound of formula A in which R^1 is n-propyl, R^2 is ethyl, R^3 is hydrogen, and R^4 is 3-trifluoromethylphenyl; that is:
The studies were carried out in Sprague Dawley rats. The test compounds were administered orally by gavage to groups of three rats using a single oral dose of the test compound at 2 and 30 mg/kg. All oral doses were prepared either as a suspension in DMSO/ethanol/PEG300/0.1% N-methyl-D-glucamine or as a suspension in 0.5% methylcellulose in water. Blood samples were obtained serially from each rat at 0, 5, 15, 30 min, and then 1, 1.5, 2, 4, 6, 8, and 24 hrs post-dose.
Concentrations of compound 1 and/or the corresponding prodrug in rat plasma were determined by a HPLC tandem mass spectrometric (LC/MS/MS) method. Briefly, 0.1 mL of plasma sample was treated with 0.5 mL of acetonitrile:methanol (9:1, v/v) mixture containing 25 ng of compound 1 having deuterated ethyl at the 3-position in place of ethyl. (Internal Standard, I.S.) to precipitate the protein. The mixture was filtered through a 96-well filter and filtrate was collected and evaporated to dryness on a 96-well plate evaporator. The residue was then reconstituted with 400 μL 20% methanol and subjected to LC/MS/MS analysis. Quantification of compound 1 was achieved by mass spectrometry using Multiple Reaction Monitoring (MRM) mode, monitoring the transitions at m/z 447.1>159.1 for compound 1 and 452.1>159.1 for I.S. The quantification limit of the assay was 0.38 ng/mL for the analysis of the oral dose samples and 10 ng/mL during the analysis of the intravenous dose samples using 0.1 mL of plasma.
Non-compartmental pharmacokinetic parameters were determined using a commercial program WinNonLin Professional, Version 4.1 (Pharsight, Mountain View, Calif.). Plasma concentration at below level of detection was assumed to be zero for the calculation of means and pharmacokinetic parameters.
For oral administration, the maximum concentration (Cmax) and time to reach Cmax (Tmax), AUC(0-1), AUC(0-8) and bioavailability (% F) were determined. Oral bioavailability was determined from the ratio of dose-adjusted AUC(0-8) of the respective oral dose and the mean AUC(0-8) values of the 0.1 and 0.5 mg/kg intravenous doses.
The results are presented below in tabular form. The table provides results obtained by using a suspension of the test compound in a suspension in DMSO/ethanol/PEG300/0.1% N-methyl-D-glucamine in rats.

The mark [1] stands for this setting: unchanged prodrug in rat plasma after single oral gavage dose, suspension in DMSO/ethanol/PEG300/0.1% N-methyl-D-glucamine.

Take `CCCC(=O)OCn1c(-c2cnn(Cc3cccc(C(F)(F)F)c3)c2)nc2c1c(=O)n(CCC)c(=O)n2CC` [Compound 2, [3-ethyl-2,6-dioxo-1-propyl-8-(1-{[3-(trifluoromethyl)phenyl]methyl}pyrazol-4-yl)-1,3,7-trihydropurin-7-yl]methyl butanoate]: under setting [1], the Cmax was < 5 ng/mL and the “Prodrug Mean Dose Adjusted AUC” value is on record as “Not detectable”.
`CCCn1c(=O)c2c(nc(-c3cnn(Cc4cccc(C(F)(F)F)c4)c3)n2COC(C)=O)n(CC)c1=O` [Compound 3, [3-ethyl-2,6-dioxo-1-propyl-8-(1-{[3-(trifluoromethyl)phenyl]methyl}pyrazol-4-yl)-1,3,7-trihydropurin-7-yl]methyl acetate]: under setting [1], the Cmax is < 5 ng/mL and the “Prodrug Mean Dose Adjusted AUC” value is “Not detectable”.
In the same order, the values of `CCCn1c(=O)c2c(nc(-c3cnn(Cc4cccc(C(F)(F)F)c4)c3)n2COC(=O)C(C)(C)C)n(CC)c1=O` [Compound 4, [3-ethyl-2,6-dioxo-1-propyl-8-(1-{[3-(trifluoromethyl)phenyl]methyl}pyrazol-4-yl)-1,3,7-trihydropurin-7-yl]methyl-2,2-dimethylpropanoate] are < 5 ng/mL and “Not detectable”.
For the molecule `CCCn1c(=O)c2c(nc(-c3cnn(Cc4cccc(C(F)(F)F)c4)c3)n2COC(=O)N(C)CCN(C)C)n(CC)c1=O` [Compound 5], under “rats, oral, result in words”, the “plasma levels of parent compound 1 following oral dosing, compared with oral dosing of the parent itself” value is “approximately the same”. Moreover, under setting [1], the “Prodrug Mean Cmax” value is <5 ng/mL and the “Prodrug Mean Dose Adjusted AUC” value is “Not detectable”.
In the case of `CCCn1c(=O)c2c(nc(-c3cnn(Cc4cccc(C(F)(F)F)c4)c3)n2COP(=O)(O)O)n(CC)c1=O` [Compound 6, [3-ethyl-2,6-dioxo-1-propyl-8-(1-{[3-(trifluoromethyl)phenyl]methyl}-pyrazol-4-yl)(1,3,7-trihydropurin-7-yl)]methyl dihydrogen phosphate], under setting [1], the Cmax is < 5 ng/mL and the “Prodrug Mean Dose Adjusted AUC” value is “Not detectable”. In addition, under “rats, oral, result in words”, the “prodrug seen in plasma unmetabolized” value is “detected in the plasma unmetabolized”.
Take `CCCn1c(=O)c2c(nc(-c3cnn(Cc4cccc(C(F)(F)F)c4)c3)n2COC(=O)NCCN(C)C)n(CC)c1=O` [Compound 10]: under setting [1], the Cmax is < 5 ng/mL and the “Prodrug Mean Dose Adjusted AUC” value was “Not detectable”. Also, the “prodrug seen in plasma unmetabolized” value (rats, oral, result in words) is listed as “detected in the plasma unmetabolized”.
